# Assay results published in ChEMBL document CHEMBL1134872, “Isothiazole dioxides: synthesis and inhibition of Trypanosoma brucei protein farnesyltransferase” (2002).
# Key:
# [1] = tested on: Protein farnesyltransferase (Trypanosoma brucei); test: Percentage in vitro inhibition of recombinant Trypanosoma brucei protein farnesyltransferase at 100 uM
# [2] = biological target: T1, Protein farnesyltransferase (Rattus norvegicus) (UniProt Q04631+Q02293); test: Percentage in vitro inhibition of rat protein farnesyltransferase at 100 uM; assay type: protein-complex assay
# [3] = biological target: T2, geranylgeranyltransferase type-I (Rattus norvegicus) (UniProt P53610+Q04631); test: Percentage in vitro inhibition of rat protein geranylgeranyltransferase type-I at 100 uM; assay type: protein-complex assay
# [4] = biological target: T2, geranylgeranyltransferase type-I (Rattus norvegicus); test: Percentage in vitro inhibition of rat protein geranylgeranyltransferase type-I at 50 uM; assay type: protein-complex assay
# [5] = biological target: T1, Protein farnesyltransferase (Rattus norvegicus); test: Percentage in vitro inhibition of rat protein farnesyltransferase at 50 uM; assay type: protein-complex assay
# [6] = tested on: Protein farnesyltransferase (Trypanosoma brucei); test: Percentage in vitro inhibition of recombinant Trypanosoma brucei protein farnesyltransferase at 2 uM
# [7] = biological target: T1, Protein farnesyltransferase (Rattus norvegicus); test: Percentage in vitro inhibition of rat protein farnesyltransferase at 2 uM; assay type: protein-complex assay
# [8] = biological target: T2, geranylgeranyltransferase type-I (Rattus norvegicus); test: Percentage in vitro inhibition of rat protein geranylgeranyltransferase type-I at 2 uM; assay type: protein-complex assay
# [9] = biological target: T2, geranylgeranyltransferase type-I (Rattus norvegicus); test: Percentage in vitro inhibition of rat protein geranylgeranyltransferase type-I at 5 uM; assay type: protein-complex assay
# [10] = biological target: T1, Protein farnesyltransferase (Rattus norvegicus); test: Percentage in vitro inhibition of rat protein farnesyltransferase at 5 uM; assay type: protein-complex assay
# Trypanosoma brucei = test: In vitro dose required to inhibit growth of Trypanosoma brucei; assay type: functional; conditions: read-out: ED50 (the source's name)
# [11] = tested on: Protein farnesyltransferase (Trypanosoma brucei); test: Percentage in vitro inhibition of recombinant Trypanosoma brucei protein farnesyltransferase at 5 uM
Structure (SMILES),inhibition [1] [%],inhibition [2] [%],inhibition [3] [%],inhibition [4] [%],inhibition [5] [%],inhibition [6] [%],other results
CCN(CC)C1=NS(=O)(=O)C(c2ccccc2)=C1c1ccc(OC)cc1,13,0,26,,,,
CCN(CC)C1=NS(=O)(=O)C(c2ccccn2)=C1c1ccc(OC)cc1,12,3,7,,,,
CCN(CC)C1=NS(=O)(=O)C(C2CC(c3c(C)cccc3C)=NO2)=C1c1ccc(OC)cc1 (stereo unspecified),,,,17,22,8,
CCN(CC)C1=NS(=O)(=O)C(SC)=C1c1ccc(OC)cc1,7,5,36,,,,
CCN(CC)C1=NS(=O)(=O)C(C)=C1c1ccc(OC)cc1,43,27,56,,,,
CCN(CC)C1=NS(=O)(=O)C(c2cn(S(=O)(=O)c3ccccc3)c3ccccc23)=C1c1ccc(OC)cc1,29,5,25,,,,
CCN(CC)C1=NS(=O)(=O)C(C#Cc2ccccc2)=C1c1ccc(OC)cc1,,,,,,0,inhibition [7]: 2%; inhibition [8]: 7%
CCN(CC)C1=NS(=O)(=O)C(SC2CCCCC2)=C1c1ccc(OC)cc1,52,6,20,,,,
CCN(CC)C1=NS(=O)(=O)C(C2CC(c3c(C)cc(C)cc3C)=NO2)=C1c1ccc(OC)cc1 (stereo unspecified),,,,25,21,50,inhibition [9]: 15%; inhibition [10]: 0%; EC50 (Trypanosoma brucei): 10 µM; inhibition [11]: 66%
CCN(CC)C1=NS(=O)(=O)C(SC/C=C(\C)CC/C=C(/C)CCC=C(C)C)=C1c1ccc(OC)cc1,25,0,28,,,,
CCN(CC)C1=NS(=O)(=O)C(C2CC(c3ccccc3C)=NO2)=C1c1ccc(OC)cc1 (stereo unspecified),,,,0,22,2,
CCN(CC)C1=NS(=O)(=O)C(C2CC(c3ccc(OC)cc3)=NO2)=C1c1ccc(OC)cc1 (stereo unspecified),,,,17,13,8,
CCN(CC)C1=NS(=O)(=O)C(C2CC(c3c(Cl)cccc3Cl)=NO2)=C1c1ccc(OC)cc1 (stereo unspecified),,,,45,14,32,
CCN(CC)C1=NS(=O)(=O)C(c2cc(-c3c(C)cc(C)cc3C)no2)=C1c1ccc(OC)cc1,,,,11,8,0,
CCN(CC)C1=NS(=O)(=O)C(Sc2ccccc2)=C1c1ccc(OC)cc1,62,5,17,,,,
CCN(CC)C1=NS(=O)(=O)C(C2CC(c3c(C)c(C)c(C)c(C)c3C)=NO2)=C1c1ccc(OC)cc1 (stereo unspecified),,,,,7,13,
CCOC1C(c2c(C)cc(C)cc2C)=NOC1C1=C(c2ccc(OC)cc2)C(N(CC)CC)=NS1(=O)=O (stereo unspecified),,,,12,9,10,
CCN(CC)C1=NS(=O)(=O)C(C2CC(c3ccc([N+](=O)[O-])cc3)=NO2)=C1c1ccc(OC)cc1 (stereo unspecified),,,,8,18,2,
CCN(CC)C1=NS(=O)(=O)C(C2CC(c3ccc(Cl)cc3)=NO2)=C1c1ccc(OC)cc1 (stereo unspecified),,,,20,8,0,
CCN(CC)C1=NS(=O)(=O)C(C2CC(c3c(C)c(Cl)c(C)c(Cl)c3C)=NO2)=C1c1ccc(OC)cc1 (stereo unspecified),,,,7,2,28,
CCN(CC)C1=NS(=O)(=O)C=C1c1ccc(OC)cc1,,,,,,,inhibition [9]: 12%; inhibition [10]: 0%; inhibition [11]: 0%
